Activity calls are given as the source filed them. The rule behind the calls is not given here.
What follows are compounds tested against Crimean-Congo hemorrhagic fever virus L protein viral ovarian tumor (vOTU) protease domain (assay: CCHFV vOTU protease inhibitor potency, dose response, biochemical, fluorescence, Pep-AMC substrate (AID 720578)). Conditions: recombinant CCHFV vOTU, Pep-AMC fluorescence cleavage.
For O=C(O)CCCNc1cc(N2CCN(C(=O)c3ccco3)CC2)c2noc3c2c1C(=O)c1ccccc1-3, the IC50 was 5720 nM. In the case of CCCCn1c(NS(=O)(=O)c2ccccc2)c(C(=O)OCC)c2nc3ccccc3nc21, the IC50 is reported as > 115000 nM (inactive). In the case of O=C1C=C(Nc2ccccc2C(=O)O)c2ccccc2C1=O, the IC50 is reported as 3590 nM. With CC(=O)[C@@H]1[C@@H]2C(=O)N(c3ccc(F)c(Cl)c3)C(=O)[C@@H]2C2c3ccccc3C=CN21 (some centres undefined) the IC50 was “inactive”. With Cc1ccc(S(=O)(=O)/N=C2\C=C(Nc3cccc(C(=O)O)c3)C(=O)c3ccccc32)c(C)c1 the IC50 was 973 nM. For S=C(Nc1ccc2nsnc2c1)N1CCCCCC1, the IC50 was “inactive”. In the case of CN(C1=C(NC(=O)c2ccccc2)C(=O)c2ccccc2C1=O)C1CCS(=O)(=O)C1 (centres undefined), the IC50 is reported as 2430 nM. With O=S(=O)(Nc1cc(Sc2ncn[nH]2)c(O)c2ccccc12)c1ccccc1 the IC50 was 708 nM. Work on Oc1c(N=Nc2nn[nH]n2)ccc2ccccc12 yielded an IC50 of 5110 nM. In the case of Cn1nc(-c2ccccn2)nc2c(=O)n(C)c(=O)nc1-2, the IC50 is reported as 366 nM. Cc1ccc(N2C(=O)[C@@H]3[C@H](C2=O)C2c4ccccc4C=CN2[C@@H]3C(=O)c2ccco2)cc1 (some centres undefined) gave an IC50 of 4210 nM. Work on CN=c1sc2c(n1C)C(=O)c1ccccc1C2=O yielded an IC50 of 1780 nM. With Cc1c(C=O)c(Cl)n(C)c(=O)c1C#N the IC50 was “inactive”. In the case of COc1ccccc1N=Nc1c(O)[nH]c(=S)[nH]c1=O, the IC50 is reported as “inactive”. With CC(=O)N(/N=C1\Sc2ccccc2C1=O)c1cccc(C)c1 the IC50 was “inactive”. O=c1[nH]c(Nc2ccccc2)cc2cc(Br)ccc12 was tested, and the IC50 was 1000 nM. In the case of O=C1C(=O)c2ccccc2-c2ccccc21, the IC50 is reported as 2400 nM. For O=C1C=C(N2CCCCC2)c2ccccc2C1=O, the IC50 was 7750 nM. With O=C(N/N=C1\C/C(=N\NC(=O)c2ccncc2)c2ccccc21)c1ccncc1 the IC50 was 701 nM. COC1=C(N)C(=O)c2nc(C)ccc2C1=O gave an IC50 of 1370 nM. With O=C1C=C(O)c2[nH]c(=O)ccc2C1=O the IC50 was 4260 nM. For O=S(=O)(Nc1c(S(=O)(=O)c2ccccc2)c2nc3ccccc3nc2n1C1CCCCC1)c1ccccc1, the IC50 was > 115000 nM (inactive). For C=CCN1C=CC(=C/C=C(/C#N)C(=O)OCC)C=C1, the IC50 was “inactive”. With CC(=O)[C@H]1[C@@H]2C(=O)N(c3cccc(Cl)c3)C(=O)[C@@H]2[C@H]2c3ccccc3C=CN21 the IC50 was “inactive”.

From PubChem BioAssay AID720578 (The Scripps Research Institute Molecular Screening Center, 2013)
